Usually IC50 stands for the concentration that inhibits the measured activity by half.

The results in this text go back to patent US10562898B2, “Substituted benzenesulfonamides as inhibitors of alpha-4 beta-7 integrin activity” (EA PHARMA CO., LTD., priority 2016, dated 2020).

The test deals with T1, α4β1 integrin (Homo sapiens, UniProt P05556+P13612).
T1 construct: a cell line Jurkat, which is known to express α4β1 integrin; endogenous in cells; host or cells: Jurkat (human T cell line)
T1 sequence (P13612 34-1032): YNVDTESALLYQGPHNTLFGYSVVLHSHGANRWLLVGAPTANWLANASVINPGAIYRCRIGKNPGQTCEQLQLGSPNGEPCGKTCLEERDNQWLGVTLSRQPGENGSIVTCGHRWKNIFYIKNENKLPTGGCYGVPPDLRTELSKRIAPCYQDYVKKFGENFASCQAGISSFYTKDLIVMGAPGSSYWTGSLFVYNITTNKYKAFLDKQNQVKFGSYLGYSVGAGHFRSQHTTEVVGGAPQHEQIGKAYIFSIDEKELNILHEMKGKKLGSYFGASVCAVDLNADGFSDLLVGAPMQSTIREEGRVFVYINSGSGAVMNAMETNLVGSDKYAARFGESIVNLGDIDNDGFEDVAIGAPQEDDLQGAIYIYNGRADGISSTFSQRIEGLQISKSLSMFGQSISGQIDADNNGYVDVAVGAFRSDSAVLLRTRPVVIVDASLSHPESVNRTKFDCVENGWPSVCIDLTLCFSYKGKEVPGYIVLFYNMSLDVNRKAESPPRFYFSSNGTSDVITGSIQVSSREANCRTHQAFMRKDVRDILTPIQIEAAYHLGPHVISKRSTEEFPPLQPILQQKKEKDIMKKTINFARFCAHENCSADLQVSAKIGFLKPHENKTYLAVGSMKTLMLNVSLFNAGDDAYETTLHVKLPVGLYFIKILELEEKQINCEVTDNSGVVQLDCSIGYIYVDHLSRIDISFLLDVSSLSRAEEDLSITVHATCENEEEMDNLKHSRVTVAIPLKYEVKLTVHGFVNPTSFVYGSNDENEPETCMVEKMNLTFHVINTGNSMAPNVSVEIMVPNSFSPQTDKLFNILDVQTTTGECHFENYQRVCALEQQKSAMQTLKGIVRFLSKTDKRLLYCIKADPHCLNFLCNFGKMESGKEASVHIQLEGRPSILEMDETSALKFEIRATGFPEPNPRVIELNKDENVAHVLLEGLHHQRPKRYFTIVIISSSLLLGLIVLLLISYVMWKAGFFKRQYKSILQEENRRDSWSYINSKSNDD
T1 sequence (P05556 21-798): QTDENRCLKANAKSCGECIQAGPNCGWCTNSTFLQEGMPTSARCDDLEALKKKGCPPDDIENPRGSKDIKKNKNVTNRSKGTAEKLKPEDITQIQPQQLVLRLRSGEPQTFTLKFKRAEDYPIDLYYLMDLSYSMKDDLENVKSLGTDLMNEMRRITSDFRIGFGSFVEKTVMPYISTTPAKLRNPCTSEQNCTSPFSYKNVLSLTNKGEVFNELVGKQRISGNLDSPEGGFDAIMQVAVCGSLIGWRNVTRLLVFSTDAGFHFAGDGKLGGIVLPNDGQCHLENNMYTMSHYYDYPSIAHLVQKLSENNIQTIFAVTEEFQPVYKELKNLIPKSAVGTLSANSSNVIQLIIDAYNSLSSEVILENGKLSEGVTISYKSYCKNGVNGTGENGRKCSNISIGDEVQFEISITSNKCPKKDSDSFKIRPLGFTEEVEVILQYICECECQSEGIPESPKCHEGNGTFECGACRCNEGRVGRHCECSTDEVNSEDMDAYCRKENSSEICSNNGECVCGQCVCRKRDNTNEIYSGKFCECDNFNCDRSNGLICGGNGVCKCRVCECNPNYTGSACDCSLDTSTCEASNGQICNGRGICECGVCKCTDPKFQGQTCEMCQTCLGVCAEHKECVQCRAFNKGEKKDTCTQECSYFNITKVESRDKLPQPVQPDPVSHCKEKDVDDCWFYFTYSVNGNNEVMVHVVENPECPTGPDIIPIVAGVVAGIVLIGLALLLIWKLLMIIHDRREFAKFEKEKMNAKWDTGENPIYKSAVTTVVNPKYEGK
Put plainly: VCAM-1/α4β1 integrin binding inhibitory activity evaluation test (Jurkat cells binding to VCAM-1/Fc). The test is classed as cell-based. Conditions: recombinant human VCAM-1/Fc. As for the experimental part:
(1) VCAM-1/α4β1 Integrin Binding Inhibitory Activity Evaluation Test
Each test substance was measured in terms of an ability to inhibit the VCAM-1 binding of a human T cell line, namely, a cell line Jurkat, which is known to express α4β1 integrin.
A solution of recombinant human VCAM-1/Fc (R&D Systems, Inc.) (1 μg/mL) diluted with a buffer A (carbonate buffer, pH 9.6) was placed in an amount of 50 μL/well in a 96-well microtiter plate, followed by incubation at 4° C. overnight. After the plate was washed with PBS once, 150 μL/well of Block Ace (Snow Brand Milk Products Co., Ltd.) was added, followed by incubation at room temperature for 2 hours. After removal, the plate was washed with PBS once.
Then, 100 μL of the Jurkat cells (2×10^6 cells/mL) and 100 μL of the test substance at each of various concentrations diluted with a binding buffer (DMEM containing 40 mM HEPES, 0.2% BSA, and 4 mM MnCl2) were added to the plate coated with the VCAM-1/Fc (5×10^5 cells/well), followed by incubation at 30° C. for 15 to 60 minutes. After the cells were bound to the wells, the plate was washed with PBS to remove unbound cells. A buffer C (PBS containing 1.5% Triton X-100) was added in an amount 50 μL/well to the plate to lyse the bound Jurkat cells. After 30 μL of a substrate buffer (Promega, CytoTox 96 Non-Radioactive Cytotoxicity Assay) was added to 30 μL of the cell lysate, a reaction was allowed to proceed at room temperature in the dark for 30 minutes. After 30 μL of a stop solution (Promega, CytoTox 96 Non-Radioactive Cytotoxicity Assay) was added to each, and then an absorbance at 490 nm was measured using a plate reader. The absorbance obtained here represents a detection result of an activity of lactate dehydrogenase (LDH) eluted in the supernatant of each well, that is, the absorbance is proportional to the number of Jurkat cells bound to the VCAM-1 and thus remaining on the plate. The test was performed in duplicate. Provided that the absorbance of a well containing no test substance was 100%, a cell binding rate with the test substance at each of the various concentrations was figured out, and a concentration IC50 which brought about 50% binding inhibition was calculated.
With `COC1(C(=O)Nc2ccc(S(=O)(=O)Nc3cc(F)c(C(=O)N[C@@H](Cc4ccc(-n5c(=O)c6ccncc6n(C)c5=O)cc4)C(=O)O)cc3F)cc2)CC1` [Compound A16], the IC50 turned out to be 1200 nM.
Regarding `Cc1c(C)n(C)c(=O)n(-c2ccc(C[C@H](NC(=O)c3cc(F)c(NS(=O)(=O)c4ccc(NC(=O)C5(C(F)(F)F)CC5)cc4)cc3F)C(=O)O)cc2)c1=O` [Compound A20], the half-inhibitory concentration (IC50) stood at 850 nM.
Under `Cn1c2c(c(=O)n(-c3ccc(C[C@H](NC(=O)c4cc(F)c(NS(=O)(=O)c5ccc(NC(=O)C(C)(C)C)cc5)cc4F)C(=O)O)cn3)c1=O)CCCC2` [Compound A52] stands 2200 nM.
Under `Cc1c(CO)c(=O)n(-c2ccc(C[C@H](NC(=O)c3cc(F)c(NS(=O)(=O)c4ccc(NC(=O)C(C)(C)C)cc4)cc3F)C(=O)O)cc2)c(=O)n1C` [Compound A51] stands 5500 nM.
The same measure for `Cc1cc(=O)n(-c2ccc(C[C@H](NC(=O)c3cc(F)c(NS(=O)(=O)c4ccc(NC(=O)C(C)(C)C)cc4)cc3F)C(=O)O)nc2)c(=O)n1C` [Compound A72]: 9300 nM.
Turning to `Cc1cn(C)c(=O)n(-c2ccc(C[C@H](NC(=O)c3cc(F)c(NS(=O)(=O)c4ccc(NC(=O)C(C)(C)C)s4)cc3F)C(=O)O)cn2)c1=O` [Compound A73], the half-inhibitory concentration (IC50) worked out at 21000 nM.
Under `Cc1cn(C)c(=O)n(-c2ccc(C[C@H](NC(=O)c3cc(F)c(NS(=O)(=O)c4ccc(NC(=O)C5CCCC5)cc4)cc3F)C(=O)O)cn2)c1=O` [Compound A65] stands 21000 nM.
As to `CCC(CC)C(=O)Nc1ccc(S(=O)(=O)Nc2cc(F)c(C(=O)N[C@@H](Cc3ccc(-n4c(=O)c5ccncc5n(C)c4=O)cc3)C(=O)O)cc2F)cc1` [Compound A3], the concentration for half-maximal inhibition (IC50) came out at 2400 nM.
As to `Cn1c(=O)n(-c2ccc(C[C@H](NC(=O)c3cc(F)c(NS(=O)(=O)c4ccc(NC(=O)C(C)(C)C)c(F)c4)cc3F)C(=O)O)cc2)c(=O)c2ccncc21` [Compound A12], the IC50 turned out to be 1200 nM.
Under `Cn1c(=O)n(-c2ccc(C[C@H](NC(=O)c3cc(F)c(NS(=O)(=O)c4ccc(NC(=O)C(C)(C)CO)cc4)cc3F)C(=O)O)cc2)c(=O)c2ccncc21` [Compound A18] stands 720 nM.
